What was measured:
IL-8 = biological target: T1, IL-8 (Homo sapiens, UniProt P10145); test: Sandwich ELISA assay IL-8; type: binding; details: for Decrease of IL-8 concentration: 500 pg/mL IL-8
T1 construct: purchased PeproTech, Thermo Fisher Scientific
T1 sequence (P10145 21-99): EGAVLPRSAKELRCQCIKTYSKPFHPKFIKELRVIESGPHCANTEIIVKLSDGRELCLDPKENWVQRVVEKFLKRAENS
Description: Human ELISA kits for IL-6, IL-6R, and IL-8 (Sigma-Aldrich, Merck, Germany) were used to quantify cytokine levels after treatment with complex 3 or 4. Briefly, 96-well plates precoated with specific antibodies were used to capture IL-6, IL-6R, and IL-8 from samples. […] Each sample was supplemented with 500 pg/mL of IL-6/IL-6R/IL-8. Positive control wells contained only the IL-6/IL-6R/IL-8 standard (PeproTech, Thermo Fisher Scientific, Waltham, Massachusetts, USA). […] After incubation, wells were washed, and biotinylated antihuman antibodies were added, followed by washing and addition of HRP-conjugated streptavidin. Finally, the TMB substrate was added to develop a color proportional to the cytokine concentration, and the reaction was stopped with the stop solution. Absorbance was measured at 450 nm using an […] 200 PRO microplate reader (TECAN, Switzerland).

THP1-Blue NF-κB cells = test: MTT viability assay of THP1-Blue NF-κB cells; type: cell-based; details: concentrations of the NF-κB activity assay, overnight
Description: A total of 20 μL of sterile filtered MTT (Sigma-Aldrich, Merck, Germany) solution (5 mg/mL in PBS) was added to the remaining overnight culture of THP1-Blue NF-κB cells from the above NF-κB activity assay in 96-well plates, which were incubated at 37°C (see above). After 2 h of incubation at 37°C, the supernatant was removed, and the purple formazan product generated in the cells was dissolved by the addition of 100 μL of DMSO to each well. The plates were then gently shaken for 30 s at room temperature to dissolve the precipitates. The absorbance was measured at 570 nm using an […] 200 PRO microplate reader (TECAN, Switzerland) ([43]).

SCC-9 = test: Wound healing assay; type: cell-based, human; details: IC25 concentration, area closed
Description: (§1) The wound healing activity of complexes 3 and 4 was evaluated using the ibidi Culture-Insert 2 Well in a μ-dish. Cells were plated by applying 70 μL of cell suspension at a density of 50,000 cells into both wells of the Culture-Insert 2 Well and grown over the weekend. Once confluency was achieved, sterile tweezers were used to detach the Culture-Insert 2 Well from the μ-dish. The cell layer was then gently washed with PBS. Subsequently, the cell layer was treated with medium containing complex 3 or 4 at the IC25 concentration, and wound closure was observed and photographed using an inverted light microscope (0–55 h of incubation). Experiments were performed in four independent replicates.
(§2) An in vitro wound healing assay was performed to determine the effect of complex 3 or 4 on cell migration. The area of the wound bordered by a monolayer of cells was measured using ImageJ software. Wound closure was monitored from 0 to 55 h. […] Microscope images after 24 h for all cell lines, as well as 55 h, can be seen in Supplementary Figure S7. […] The stained wound healing area after 55 h is shown in Supplementary Figure S10.

Hep-2 = test: Wound healing assay; type: cell-based, human; details: IC25 concentration, area closed
Description: as §1, §2

TR146 = test: Wound healing assay; type: cell-based, human; details: IC25 concentration, area closed
Description: as §1, §2

[1] = test system: NF-κB in THP1-Blue NF-κB cells; test: NF-κB activity assay (SEAP reporter, LPS-induced); type: cell-based; details: LPS 10 ng/mL
Description: THP1-Blue NF-κB cells, NF-κB secreted embryonic alkaline phosphatase (SEAP) reporter monocytes (InvivoGen, USA), were assayed after 20–24 h of incubation following the manufacturer’s protocol. Briefly, cells were seeded at 1 × 10^6 cells/mL in RPMI medium in 96-well plates (180 μL) and treated with complex 3 or 4, Lipopolysaccharide (LPS) (10 ng/mL; […] The next day, NF-κB activation was assessed via the secretion of SEAP. Supernatants (20 μL) were transferred to 96-well plates, and 180 μL of Quanti-Blue was added. Plates were incubated for 2 h at 37°C, and absorbance was measured at 600 nm using an […] 200 PRO microplate reader (TECAN, Switzerland).

IKKβ = biological target: T2, IKKβ (Homo sapiens, UniProt O14920); test: IKKβ inhibition assay (IKKβ Kinase Assay Kit); type: biochemical
T2 construct: purchased BPS Bioscience
T2 sequence (O14920 1-756): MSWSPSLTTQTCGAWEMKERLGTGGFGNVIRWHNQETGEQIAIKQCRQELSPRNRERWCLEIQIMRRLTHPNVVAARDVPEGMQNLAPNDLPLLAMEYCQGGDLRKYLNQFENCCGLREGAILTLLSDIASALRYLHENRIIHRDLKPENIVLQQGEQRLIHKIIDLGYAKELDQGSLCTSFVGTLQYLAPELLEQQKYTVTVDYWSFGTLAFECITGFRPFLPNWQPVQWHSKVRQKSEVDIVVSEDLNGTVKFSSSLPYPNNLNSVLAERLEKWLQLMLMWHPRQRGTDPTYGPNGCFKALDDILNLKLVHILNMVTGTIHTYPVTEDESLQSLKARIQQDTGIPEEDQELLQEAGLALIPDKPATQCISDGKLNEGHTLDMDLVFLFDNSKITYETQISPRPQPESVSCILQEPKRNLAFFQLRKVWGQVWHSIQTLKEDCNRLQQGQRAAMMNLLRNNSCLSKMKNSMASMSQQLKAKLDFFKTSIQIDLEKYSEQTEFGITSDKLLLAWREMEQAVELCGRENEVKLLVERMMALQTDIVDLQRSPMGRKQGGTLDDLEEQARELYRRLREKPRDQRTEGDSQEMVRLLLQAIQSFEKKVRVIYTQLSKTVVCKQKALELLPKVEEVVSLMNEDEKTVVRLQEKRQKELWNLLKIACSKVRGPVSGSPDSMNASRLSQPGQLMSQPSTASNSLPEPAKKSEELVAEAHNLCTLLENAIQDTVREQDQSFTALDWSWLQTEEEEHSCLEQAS
Description: IκB kinase beta (IKKβ) inhibition was determined using the IKKβ Kinase Assay Kit (BPS Bioscience, San Diego, California, USA). […] Kinase-Glo® MAX (Promega, #V6071, Madison, Wisconsin, USA) was used as the detection reagent, with an incubation time of 15 min. Blank values were subtracted from all measurements. Luminescence was measured with an integration time of 1 s using a Spark Microplate Reader (Tecan, Switzerland).

Structure (SMILES) | Cytotoxicity in THP1-Blue NF-κB cells (MTT) (THP1-Blue NF-κB cells) | Wound area (%) (SCC-9; SCC-9, 24 h) | Wound area (%) (SCC-9; SCC-9, 48 h) | Wound area (%) (SCC-9; SCC-9, 55 h) | Wound area (%) (Hep-2; Hep-2, 24 h) | Wound area (%) (Hep-2; Hep-2, 48 h) | Wound area (%) (Hep-2; Hep-2, 55 h) | Wound area (%) (TR146; TR146, 24 h) | Wound area (%) (TR146; TR146, 48 h) | Wound area (%) (TR146; TR146, 55 h) | other results
Cc1ccc(C(C)C)cc1.Cc1ccc(C(C)C)cc1.O=C1C(=Cc2ccnc3ccccc23)COCC1=Cc1ccnc2ccccc12.[Cl][Ru][Cl].[Cl][Ru][Cl] [Complex 3] | Neither complex 3, complex 4, nor curcumin exhibited significant cytotoxicity | 5 ± 2 | 6 ± 2 | less than 10% | 3 ± 1 | 5 ± 1 | less than 10% | 3 ± 1 | 4 ± 1 | less than 10% | IL-8 reduction relative to curcumin (IL-8; 1 µM versus curcumin at 5 µM): roughly 1.5 fold; Decrease of IL-8 concentration (IL-8; 8 µM): approximately 40%; Wound area (%) (SCC-9; SCC-9, 55 h, listed as C3): 7 ± 2%; Wound area (%) (Hep-2; Hep-2, 55 h, listed as C3): 7 ± 1%; Wound area (%) (TR146; TR146, 55 h, listed as C3): 5 ± 1%; Reduction of LPS-induced NF-κB activation ([1]; 8 μM): approximately 80%; Reduction of IKKβ activity (IKKβ; 8 μM): about 40%
Cc1ccc(C(C)C)cc1.Cc1ccc(C(C)C)cc1.O=C1C(=Cc2cccnc2)CCC1=Cc1cccnc1.[Cl][Ru][Cl].[Cl][Ru][Cl] [Complex 4] | Neither complex 3, complex 4, nor curcumin exhibited significant cytotoxicity | 17 ± 12 | 37 ± 8 | 55 ± 13% | 9 ± 2 | 23 ± 3 | less than 50% | 3 ± 1 | 5 ± 1 | less than 15% | Decrease of IL-8 concentration (IL-8; 15 µM): approximately 30%; Wound area (%) (Hep-2; Hep-2, 55 h, listed as C4): 47 ± 2%; Wound area (%) (TR146; TR146, 55 h, listed as C4): 7 ± 1%; Reduction of LPS-induced NF-κB activation ([1]; 15 μM): about 70%; Inhibition of IKKβ activity (IKKβ; 1 μM): approximately 30%

Reference: publication PMC12754617, “Ruthenium-enhanced curcumin derivatives target tumor growth and cancer-related inflammation in head and neck cancer models” (Frontiers in Oncology, 2025)
